The values that follow are results of earlier work, collected in patent US6962905B1, “Pharmaceutical formulation comprising a low molecular weight thrombin inhibitor and its prodrug” (AstraZeneca AB, priority 1999, dated 2005).

This series relates to DVT after total hip/knee replacement or major surgery. The settings on record: background statements from literature.

For the molecule `CC(=O)CC(c1ccccc1)c1c(O)c2ccccc2oc1=O` (stereo not drawn) [warfarin], the “effect on incidence of DVT after surgery” value is given as “effective in reducing DVT”.

Consider `CC(=O)Oc1ccccc1C(=O)O` [aspirin], for which the “effect on incidence of DVT after surgery” value was “limited efficacy”.

In the case of hirudin, the “effect on incidence of DVT after surgery” value is “superior to unfractionated heparin and LMWH”.
